Measured values published in patent publication US20020137154A1, “Methods for improving cell growth and alcohol production during fermentation” (priority 2000, published 2002).
Like-named read-outs stand apart in the source and are kept apart here.

Test system: recombinant Escherichia coli KO11
Test: Batch fermentation of E. coli KO11 in 1% CSL medium and glucose with nutrient additives: ethanol production and cell growth
Assay type: cell-based
Conditions: for Ethanol Production Maximum / Ethanol yield / Initial Growth (OD @ 24 h) OD / Maximum Cell Density OD / Volumetric Productivity Average / Volumetric Productivity Maximum: 1% CSL+glucose; for activity at 500 µg/mL / activity at 250 µg/mL / activity at 750 µg/mL: Escherichia coli

CC=O [Acetaldehyde, acetaldehyde]
initial growth and maximum cell density as compared to a control (1% CSL and glucose, 0.25 g/L at the start): greatest initial growth and maximum cell density | ethanol production as compared to the control (1% CSL and glucose, 0.75 g/L at the start): highest amount of ethanol production | Ethanol Production Maximum (0.25 g/L at start): 40.31 g/L | Ethanol yield (0.25 g/L at start): 0.415 grams of ethanol/grams of added sugar | Initial Growth (OD @ 24 h) OD (0.25 g/L at start): 3.00 OD | Maximum Cell Density OD (0.25 g/L at start): 3.17 OD | Volumetric Productivity Average (0.25 g/L at start): 0.560 grams ethanol/(liter)(hour) | Volumetric Productivity Maximum (0.25 g/L at start): 0.678 grams ethanol/(liter)(hour) | Ethanol Production Maximum (0.5 + 0.25 g/L (start, 8 h)): 40.25 g/L | Ethanol yield (0.5 + 0.25 g/L (start, 8 h)): 0.414 grams of ethanol/grams of added sugar | Initial Growth (OD @ 24 h) OD (0.5 + 0.25 g/L (start, 8 h)): 2.64 OD | Maximum Cell Density OD (0.5 + 0.25 g/L (start, 8 h)): 2.99 OD | Volumetric Productivity Average (0.5 + 0.25 g/L (start, 8 h)): 0.419 grams ethanol/(liter)(hour) | Volumetric Productivity Maximum (0.5 + 0.25 g/L (start, 8 h)): 0.598 grams ethanol/(liter)(hour) | Ethanol Production Maximum (0.5 + 0.5 g/L (start, 8 h)): 40.03 g/L | Ethanol yield (0.5 + 0.5 g/L (start, 8 h)): 0.412 grams of ethanol/grams of added sugar | Initial Growth (OD @ 24 h) OD (0.5 + 0.5 g/L (start, 8 h)): 2.74 OD | Maximum Cell Density OD (0.5 + 0.5 g/L (start, 8 h)): 3.09 OD | Volumetric Productivity Average (0.5 + 0.5 g/L (start, 8 h)): 0.417 grams ethanol/(liter)(hour) | Volumetric Productivity Maximum (0.5 + 0.5 g/L (start, 8 h)): 0.659 grams ethanol/(liter)(hour) | Ethanol Production Maximum (0.5 g/L at start): 39.95 g/L | Ethanol yield (0.5 g/L at start): 0.411 grams of ethanol/grams of added sugar | Initial Growth (OD @ 24 h) OD (0.5 g/L at start): 2.77 OD | Maximum Cell Density OD (0.5 g/L at start): 2.96 OD | Volumetric Productivity Average (0.5 g/L at start): 0.416 grams ethanol/(liter)(hour) | Volumetric Productivity Maximum (0.5 g/L at start): 0.615 grams ethanol/(liter)(hour) | Ethanol Production Maximum (0.75 g/L at start): 43.44 g/L | Ethanol yield (0.75 g/L at start): 0.447 grams of ethanol/grams of added sugar | Initial Growth (OD @ 24 h) OD (0.75 g/L at start): 2.47 OD | Maximum Cell Density OD (0.75 g/L at start): 2.81 OD | Volumetric Productivity Average (0.75 g/L at start): 0.452 grams ethanol/(liter)(hour) | Volumetric Productivity Maximum (0.75 g/L at start): 0.699 grams ethanol/(liter)(hour) | activity at 500 µg/mL (8 h, read-out: Ethanol Production Maximum % Control, 1% CSL+glucose, 0.5 + 0.25 g/L (start, 8 h)): 109% | activity at 500 µg/mL (8 h, read-out: Ethanol Production Maximum % Control, 1% CSL+glucose, 0.5 + 0.5 g/L (start, 8 h)): 108% | activity at 500 µg/mL (8 h, read-out: Maximum Cell Density % Control, 1% CSL+glucose, 0.5 + 0.25 g/L (start, 8 h)): 111% | activity at 500 µg/mL (8 h, read-out: Maximum Cell Density % Control, 1% CSL+glucose, 0.5 + 0.5 g/L (start, 8 h)): 115% | activity at 500 µg/mL (8 h, read-out: Volumetric Productivity Average % Control, 1% CSL+glucose, 0.5 + 0.25 g/L (start, 8 h)): 109% | activity at 500 µg/mL (8 h, read-out: Volumetric Productivity Average % Control, 1% CSL+glucose, 0.5 + 0.5 g/L (start, 8 h)): 108% | activity at 500 µg/mL (8 h, read-out: Volumetric Productivity Maximum % Control, 1% CSL+glucose, 0.5 + 0.25 g/L (start, 8 h)): 116% | activity at 500 µg/mL (8 h, read-out: Volumetric Productivity Maximum % Control, 1% CSL+glucose, 0.5 + 0.5 g/L (start, 8 h)): 128% | activity at 250 µg/mL (24 h, read-out: Initial Growth (OD @ 24 h) % Control, 1% CSL+glucose, 0.25 g/L at start): 112% | activity at 500 µg/mL (24 h, read-out: Initial Growth (OD @ 24 h) % Control, 1% CSL+glucose, 0.5 + 0.25 g/L (start, 8 h)): 98.9% | activity at 500 µg/mL (24 h, read-out: Initial Growth (OD @ 24 h) % Control, 1% CSL+glucose, 0.5 + 0.5 g/L (start, 8 h)): 103% | activity at 500 µg/mL (24 h, read-out: Initial Growth (OD @ 24 h) % Control, 1% CSL+glucose, 0.5 g/L at start): 104% | activity at 750 µg/mL (24 h, read-out: Initial Growth (OD @ 24 h) % Control, 1% CSL+glucose, 0.75 g/L at start): 92.5% | activity at 250 µg/mL (read-out: Ethanol Production Maximum % Control, 1% CSL+glucose, 0.25 g/L at start): 109% | activity at 500 µg/mL (read-out: Ethanol Production Maximum % Control, 1% CSL+glucose, 0.5 g/L at start): 108% | activity at 750 µg/mL (read-out: Ethanol Production Maximum % Control, 1% CSL+glucose, 0.75 g/L at start): 117% | activity at 250 µg/mL (read-out: Maximum Cell Density % Control, 1% CSL+glucose, 0.25 g/L at start): 118% | activity at 500 µg/mL (read-out: Maximum Cell Density % Control, 1% CSL+glucose, 0.5 g/L at start): 110% | activity at 750 µg/mL (read-out: Maximum Cell Density % Control, 1% CSL+glucose, 0.75 g/L at start): 105% | activity at 250 µg/mL (read-out: Volumetric Productivity Average % Control, 1% CSL+glucose, 0.25 g/L at start): 145% | activity at 500 µg/mL (read-out: Volumetric Productivity Average % Control, 1% CSL+glucose, 0.5 g/L at start): 108% | activity at 750 µg/mL (read-out: Volumetric Productivity Average % Control, 1% CSL+glucose, 0.75 g/L at start): 117% | activity at 250 µg/mL (read-out: Volumetric Productivity Maximum % Control, 1% CSL+glucose, 0.25 g/L at start): 132% | activity at 500 µg/mL (read-out: Volumetric Productivity Maximum % Control, 1% CSL+glucose, 0.5 g/L at start): 120% | activity at 750 µg/mL (read-out: Volumetric Productivity Maximum % Control, 1% CSL+glucose, 0.75 g/L at start): 136%
